Where two headings read alike, the source gives them in different places.
Tests used:
[1] = system: anesthetized, normotensive cats; assay: Hypotensive effect in anesthetized, normotensive cats; assay type: in vivo, cat; conditions: 1 mg/kg id.
Method: A tube was inserted in the trachea of cats anesthetized with ip.35 mg/kg of pentobarbital sodium to ensure spontaneous respiration. The femoral artery and vein were both cannulated unilaterally. The vegetative test compounds (adrenaline, isoproterenol) were administered through the venous cannule. The mean arterial blood pressure was measured by joining the arterial cannule to a Statham P23Db pressure transducer and electromanometer. The heart rate was determined by a cardiotachometer triggered by arterial pulse-wave.
Various doses of the test compounds were administered through a cannule inserted into the duodenum.

[2] = system: PGF2alpha induced uterus contractions (isolated rat uterus); assay: In vitro uterus relaxant activity in the isolated rat uterus (inhibition of PGF2alpha induced contraction); conditions: 10^-6 M test compound
Method: The test was performed according to the method of Gaddum and Hammeed [Brit. […] The inhibitory activity of 10^-6 M doses of the test compounds on the PGF2alpha induced uterus contractions was determined.

[3] = system: spontaneously hypertensive conscious rats; assay: Antihypertensive effect in spontaneously hypertensive conscious rats ("SH" rats); assay type: in vivo, rat (Wistar-Okamoto); conditions: for change in vivo at 10 mg/kg / change in vivo at 2.5 mg/kg: Rattus norvegicus, po
Method: The blood pressure of rats was measured before treatment and hourly after drug administration till the 24th posttreatment hour. The test compounds were administered orally, by gavage.

[4] = target: T1, potential-mediated calcium channel (Rattus norvegicus, UniProt P22002); assay: Calcium-antagonistic effect on an isolated vessel preparation (portal vein); conditions: depolarizing solution (90 mM KCl), CaCl2 2.5 and 5.0 mM, 37° C., pH 7.4, read-out: Inhibition of the potential-mediated calcium channel, IC50
T1 construct: Portal veins were obtained from decapitated male rats; from tissue; host or cells: rat portal vein (longitudinally incised venous segment)
Method: Portal veins were obtained from decapitated male rats weighing 300 to 350 g. The longitudinally incised venous segment was suspended in an organ chamber (10 ml) filled with physiological saline solution under resting tension of 1 g. Its upper end was attached to a HSI force-displacement transducer. Isometric contractions were recorded with a Beckman Dynograph.
After the initial equilibration period in a calcium-free Krebs-Ringer bicarbonate solution (KRB) the vein was exposed to a depolarizing solution (calcium-free KRB containing 90 mM of KCl) for 10 minutes. In order to determine the cumulative contractile responses CaCl2 was added in an end-concentration of 2.5 and 5.0 mM, resp. Each medium was oxygenated with carbogen gas and maintained at 37° C. and pH 7.4.
The influence of the test compounds on the contraction was determined by incubating the veins in the depolarizing solution for 10 minutes before and during exposure to Ca^2+. Each vein preparation was subjected to a single concentration of the test compound.
For each experiment the 100% responses were considered as the maximum contractile responses during the control Ca curves. The contractions after exposure to the test compounds were expressed as the percentage of these values.

[5] = target: T2, 1,4-dihydropyridine receptor; assay: Receptor binding studies (displacement of 3H-nitrendipine, heart microsomal preparation); conditions: displacement of 50% of 3H-nitrendipine
T2 construct: to the heart microsomal preparation; from tissue; host or cells: heart microsomal preparation
T2 sequence (Q13936 whole entry): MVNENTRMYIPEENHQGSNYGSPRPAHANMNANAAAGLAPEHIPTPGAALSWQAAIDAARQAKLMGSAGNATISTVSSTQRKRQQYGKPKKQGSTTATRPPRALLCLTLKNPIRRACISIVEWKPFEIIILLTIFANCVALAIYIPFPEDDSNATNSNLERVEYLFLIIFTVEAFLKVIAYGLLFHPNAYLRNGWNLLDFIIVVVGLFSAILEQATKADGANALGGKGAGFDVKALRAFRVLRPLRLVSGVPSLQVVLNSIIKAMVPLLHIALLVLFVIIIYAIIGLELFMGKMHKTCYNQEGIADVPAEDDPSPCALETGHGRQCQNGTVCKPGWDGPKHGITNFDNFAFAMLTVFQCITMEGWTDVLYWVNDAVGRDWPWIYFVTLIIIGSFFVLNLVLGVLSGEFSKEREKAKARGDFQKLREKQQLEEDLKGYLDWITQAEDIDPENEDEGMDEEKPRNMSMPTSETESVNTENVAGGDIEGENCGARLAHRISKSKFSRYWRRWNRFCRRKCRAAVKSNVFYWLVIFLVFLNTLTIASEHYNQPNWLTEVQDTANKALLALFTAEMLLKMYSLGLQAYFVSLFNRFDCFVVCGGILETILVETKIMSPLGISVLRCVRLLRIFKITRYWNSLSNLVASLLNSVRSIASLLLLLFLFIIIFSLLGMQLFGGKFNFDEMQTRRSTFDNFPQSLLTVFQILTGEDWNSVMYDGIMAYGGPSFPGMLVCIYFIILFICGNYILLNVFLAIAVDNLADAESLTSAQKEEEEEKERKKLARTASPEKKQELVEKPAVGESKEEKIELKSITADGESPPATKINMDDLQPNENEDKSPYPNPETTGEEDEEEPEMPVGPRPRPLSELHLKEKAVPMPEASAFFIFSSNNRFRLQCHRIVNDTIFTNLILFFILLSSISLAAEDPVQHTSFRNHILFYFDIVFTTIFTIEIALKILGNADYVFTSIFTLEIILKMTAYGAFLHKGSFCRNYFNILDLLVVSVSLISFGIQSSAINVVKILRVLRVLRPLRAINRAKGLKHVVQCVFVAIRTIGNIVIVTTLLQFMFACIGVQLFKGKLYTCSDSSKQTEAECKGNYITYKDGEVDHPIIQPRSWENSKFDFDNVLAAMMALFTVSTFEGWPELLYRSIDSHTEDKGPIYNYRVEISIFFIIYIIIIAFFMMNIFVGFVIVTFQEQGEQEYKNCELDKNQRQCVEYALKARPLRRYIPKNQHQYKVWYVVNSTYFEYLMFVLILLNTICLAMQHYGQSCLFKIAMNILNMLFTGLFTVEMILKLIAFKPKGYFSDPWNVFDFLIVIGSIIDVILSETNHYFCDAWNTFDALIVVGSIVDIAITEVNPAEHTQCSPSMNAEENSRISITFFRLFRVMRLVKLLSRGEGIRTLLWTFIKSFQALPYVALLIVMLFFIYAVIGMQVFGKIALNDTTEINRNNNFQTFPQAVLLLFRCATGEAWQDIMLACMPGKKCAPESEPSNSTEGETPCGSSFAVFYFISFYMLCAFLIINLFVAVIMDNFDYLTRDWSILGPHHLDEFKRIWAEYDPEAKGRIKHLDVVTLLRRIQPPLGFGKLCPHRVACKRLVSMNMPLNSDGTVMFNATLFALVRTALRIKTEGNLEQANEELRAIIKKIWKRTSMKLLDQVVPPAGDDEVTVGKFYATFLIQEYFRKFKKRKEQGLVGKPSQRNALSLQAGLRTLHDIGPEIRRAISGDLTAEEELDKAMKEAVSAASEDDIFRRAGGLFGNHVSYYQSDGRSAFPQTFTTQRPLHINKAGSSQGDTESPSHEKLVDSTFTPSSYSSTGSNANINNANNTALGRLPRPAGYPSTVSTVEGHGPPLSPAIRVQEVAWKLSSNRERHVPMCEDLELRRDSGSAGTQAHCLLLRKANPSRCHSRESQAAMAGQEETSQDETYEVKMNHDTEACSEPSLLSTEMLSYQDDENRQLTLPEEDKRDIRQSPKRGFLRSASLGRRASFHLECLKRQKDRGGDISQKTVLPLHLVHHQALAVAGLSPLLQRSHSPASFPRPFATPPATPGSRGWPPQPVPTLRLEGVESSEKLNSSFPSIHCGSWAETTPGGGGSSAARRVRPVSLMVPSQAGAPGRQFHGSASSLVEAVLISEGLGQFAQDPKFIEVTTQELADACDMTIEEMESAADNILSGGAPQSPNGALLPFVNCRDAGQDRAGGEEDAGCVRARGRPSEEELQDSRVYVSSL
T2 sequence (P54289 25-955 partner limits assumed): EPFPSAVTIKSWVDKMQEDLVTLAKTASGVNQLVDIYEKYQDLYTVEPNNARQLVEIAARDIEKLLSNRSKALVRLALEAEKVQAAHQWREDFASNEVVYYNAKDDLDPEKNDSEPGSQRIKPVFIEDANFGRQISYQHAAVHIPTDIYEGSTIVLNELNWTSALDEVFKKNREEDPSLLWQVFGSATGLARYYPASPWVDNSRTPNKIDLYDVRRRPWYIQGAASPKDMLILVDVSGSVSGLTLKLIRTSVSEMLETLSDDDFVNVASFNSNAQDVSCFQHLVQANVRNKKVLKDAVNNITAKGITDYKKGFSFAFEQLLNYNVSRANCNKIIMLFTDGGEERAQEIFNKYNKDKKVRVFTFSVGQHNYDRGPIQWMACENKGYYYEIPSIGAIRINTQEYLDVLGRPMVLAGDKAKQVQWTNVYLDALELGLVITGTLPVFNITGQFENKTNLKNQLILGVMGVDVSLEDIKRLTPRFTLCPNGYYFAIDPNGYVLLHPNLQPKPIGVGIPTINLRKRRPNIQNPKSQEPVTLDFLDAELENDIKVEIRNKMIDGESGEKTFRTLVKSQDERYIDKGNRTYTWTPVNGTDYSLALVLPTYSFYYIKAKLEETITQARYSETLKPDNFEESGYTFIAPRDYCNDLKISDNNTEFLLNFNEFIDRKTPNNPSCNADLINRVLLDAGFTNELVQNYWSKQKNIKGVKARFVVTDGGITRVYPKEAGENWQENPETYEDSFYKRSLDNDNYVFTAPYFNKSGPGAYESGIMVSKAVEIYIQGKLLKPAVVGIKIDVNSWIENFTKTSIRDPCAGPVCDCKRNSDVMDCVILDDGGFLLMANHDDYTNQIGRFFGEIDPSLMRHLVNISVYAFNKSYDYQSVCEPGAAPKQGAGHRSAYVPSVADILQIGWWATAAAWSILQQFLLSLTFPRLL
T2 sequence (P54289 956-1103 partner limits assumed): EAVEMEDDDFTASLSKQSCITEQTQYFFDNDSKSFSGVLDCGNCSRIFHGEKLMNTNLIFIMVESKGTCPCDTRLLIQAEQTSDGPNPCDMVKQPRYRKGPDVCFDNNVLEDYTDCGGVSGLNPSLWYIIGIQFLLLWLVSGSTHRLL
T2 sequence (Q08289 whole entry partner): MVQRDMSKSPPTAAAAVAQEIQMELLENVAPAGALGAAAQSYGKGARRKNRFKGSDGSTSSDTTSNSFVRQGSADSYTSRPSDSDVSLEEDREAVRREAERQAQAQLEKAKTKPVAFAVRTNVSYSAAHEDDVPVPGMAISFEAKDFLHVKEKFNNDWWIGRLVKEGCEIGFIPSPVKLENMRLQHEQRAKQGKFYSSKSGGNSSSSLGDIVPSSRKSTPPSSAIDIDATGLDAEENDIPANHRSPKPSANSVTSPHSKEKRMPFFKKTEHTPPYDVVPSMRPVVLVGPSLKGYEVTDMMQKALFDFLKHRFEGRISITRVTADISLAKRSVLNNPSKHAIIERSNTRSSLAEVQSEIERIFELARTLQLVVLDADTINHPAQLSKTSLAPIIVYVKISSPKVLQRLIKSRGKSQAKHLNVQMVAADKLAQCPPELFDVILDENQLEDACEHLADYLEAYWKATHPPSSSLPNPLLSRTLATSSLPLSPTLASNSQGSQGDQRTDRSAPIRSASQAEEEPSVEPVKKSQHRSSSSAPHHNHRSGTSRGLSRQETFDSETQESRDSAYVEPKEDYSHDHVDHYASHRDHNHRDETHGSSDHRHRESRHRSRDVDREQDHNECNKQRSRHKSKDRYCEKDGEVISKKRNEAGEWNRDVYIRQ

[6] = 10 mg/kg p.o., 2 h, read-out: Systolic blood pressure reduction in %, 2 h
[7] = 10 mg/kg p.o., 5 h, read-out: Systolic blood pressure reduction in %, 5 h
[8] = 10 mg/kg p.o., 24 h, read-out: Systolic blood pressure reduction in %, 24 h
[9] = 2.5 mg/kg p.o., 2 h, read-out: Systolic blood pressure reduction in %, 2 h
[10] = 2.5 mg/kg p.o., 5 h, read-out: Systolic blood pressure reduction in %, 5 h
[11] = 2.5 mg/kg p.o., 24 h, read-out: Systolic blood pressure reduction in %, 24 h

Row | SMILES | Mean arterial pressure, 5 min [1] | Mean arterial pressure, 15 min [1] | Mean arterial pressure, 30 min [1] | Mean arterial pressure, 60 min [1] | Mean arterial pressure, 120 min [1] | Inhibition of PGF2alpha induced contraction [2] | Systolic blood pressure, 2 h ([3]; 10 mg/kg p.o., 2 h) | Systolic blood pressure, 5 h ([3]; 10 mg/kg p.o., 5 h) | Systolic blood pressure, 24 h ([3]; 10 mg/kg p.o., 24 h) | change in vivo at 10 mg/kg [3, 6] | change in vivo at 10 mg/kg [3, 7] | change in vivo at 10 mg/kg [3, 8] | IC50 [4] | IC50 [5] | Systolic blood pressure, 2 h ([3]; 2.5 mg/kg p.o., 2 h) | Systolic blood pressure, 5 h ([3]; 2.5 mg/kg p.o., 5 h) | Systolic blood pressure, 24 h ([3]; 2.5 mg/kg p.o., 24 h) | change in vivo at 2.5 mg/kg [3, 9] | change in vivo at 2.5 mg/kg [3, 10] | change in vivo at 2.5 mg/kg [3, 11]
1 | COC(=O)C1=C(C)NC(C)=C(C(=O)OC)C1c1ccccc1NC(=O)c1ccc(Cl)cc1 [Example 6] | 115 Hgmm | 85 Hgmm | 65 Hgmm | 70 Hgmm | 75 Hgmm |  |  |  |  |  |  |  |  |  |  |  |  |  |  | 
2 | COC(=O)C1=C(C)NC(C)=C(C(=O)OC)C1c1ccccc1NC(=O)c1ccccc1[N+](=O)[O-] [Example 8] |  |  |  |  |  | 96.7% |  |  |  |  |  |  |  |  |  |  |  |  |  | 
3 | COC(=O)C1=C(C)NC(C)=C(C(=O)OC)C1c1ccccc1NC(=O)C=Cc1ccccc1 [Example 9] | 125 Hgmm | 85 Hgmm | 65 Hgmm | 75 Hgmm | 102 Hgmm | 94.3% | 166.6 Hgmm | 166.6 Hgmm | 192.0 Hgmm | -13% | -13% | 1% |  |  |  |  |  |  |  | 
4 | COC(=O)C1=C(C)NC(C)=C(C(=O)OC)C1c1ccccc1NC(=O)c1ccco1 [Example 10] | 60 Hgmm | 70 Hgmm | 80 Hgmm | 85 Hgmm |  | 94.0% |  |  |  |  |  |  |  |  |  |  |  |  |  | 
5 | COC(=O)C1=C(C)NC(C)=C(C(=O)OC)C1c1ccccc1NC(=O)C=Cc1ccc([N+](=O)[O-])cc1 [Example 11] | 147 Hgmm | 130 Hgmm | 125 Hgmm | 120 Hgmm | 132 Hgmm | 77.8% | 140 Hgmm | 157.8 Hgmm | 178.8 Hgmm | -26% | -16% | -5% |  |  |  |  |  |  |  | 
6 | COC(=O)C1=C(C)NC(C)=C(C(=O)OC)C1c1ccccc1NC(=O)c1ccccc1 [Example 12] | 115 Hgmm | 92 Hgmm | 90 Hgmm | 97 Hgmm | 145 Hgmm | 83.3% | 164 Hgmm | 166.0 Hgmm | 190.8 Hgmm | -14% | -13% | 0% |  |  |  |  |  |  |  | 
7 | COC(=O)C1=C(C)NC(C)=C(C(=O)OC)C1c1ccccc1NC(=O)c1ccc(OC)cc1 [Example 14] | 150 Hgmm | 75 Hgmm | 85 Hgmm | 95 Hgmm | 110 Hgmm |  | 165 Hgmm | 164.5 Hgmm | 206.8 Hgmm | -17% | -17% | 4% |  |  |  |  |  |  |  | 
8 | COC(=O)C1=C(C)NC(C)=C(C(=O)OC)C1c1ccccc1NC(=O)c1ccc(C)cc1 [Example 15] | 90 Hgmm | 65 Hgmm | 65 Hgmm | 73 Hgmm | 90 Hgmm |  |  |  |  |  |  |  | 3 nM | 15.5 ± 3.5 nM | 141.4 Hgmm | 139.2 Hgmm | 193.8 Hgmm | -31% | -32% | -5%
9 | CCCCCCCC(=O)Nc1ccccc1C1C(C(=O)OC)=C(C)NC(C)=C1C(=O)OC [Example 18] | 75 Hgmm |  | 100 Hgmm | 100 Hgmm |  |  | 179.2 Hgmm | 178 Hgmm | 192.6 Hgmm | -11% | -11% | -4% |  |  |  |  |  |  |  | 
10 | COC(=O)C1=C(C)NC(C)=C(C(=O)OC)C1c1ccccc1NC(=O)c1cccc(C)c1 [Example 20] | 140 Hgmm |  | 105 Hgmm | 105 Hgmm | 120 Hgmm |  |  |  |  |  |  |  |  |  |  |  |  |  |  | 
11 | COC(=O)C1=C(C)NC(C)=C(C(=O)OC)C1c1ccccc1NC(=O)c1ccccc1C [Example 21] | 90 Hgmm | 95 Hgmm | 100 Hgmm | 110 Hgmm | 110 Hgmm |  | 175.2 Hgmm | 167.8 Hgmm | 201.4 Hgmm | -10% | -14% | 4% |  |  |  |  |  |  |  | 
12 | CCc1ccc(C(=O)Nc2ccccc2C2C(C(=O)OC)=C(C)NC(C)=C2C(=O)OC)cc1 [Example 22] | 120 Hgmm | 110 Hgmm | 105 Hgmm | 85 Hgmm | 85 Hgmm |  |  |  |  |  |  |  |  |  | 142.2 Hgmm | 144.0 Hgmm | 191.4 Hgmm | -27% | -26% | -2%
13 | COCCOC(=O)C1=C(C)NC(C)=C(C(=O)OC)C1c1ccccc1NC(=O)c1ccc([N+](=O)[O-])cc1 (stereo not drawn) [Example 28] | 137 Hgmm | 105 Hgmm | 97 Hgmm | 100 Hgmm | 115 Hgmm |  | 174.8 Hgmm | 163.5 Hgmm | 202.4 Hgmm | -10% | -16% | 4% |  |  |  |  |  |  |  | 
14 | COCCOC(=O)C1=C(C)NC(C)=C(C(=O)OC)C1c1ccccc1NC(=O)C(F)(F)F (stereo not drawn) [Example 36, 2,6-Dimethyl-3-methoxycarbonyl-5-(2-methoxyethoxycarbonyl)-4-(2-trifluoroacetamidophenyl)-1,4-dihydropyridine] |  |  |  |  |  |  | 172.8 Hgmm | 172.4 Hgmm | 222.0 Hgmm | -19% | -19% | 4% |  |  |  |  |  |  |  | 
15 | COC(=O)C1=C(C)NC(C)=C(C(=O)OC(C)C)C1c1ccccc1NC(=O)C(F)(F)F (stereo not drawn) [Example 37, 2,6-Dimethyl-3-isopropoxycarbonyl-5-methoxycarbonyl-4-(2-trifluoroacetamidophenyl)-1,4-dihydrophyridine] | 150 Hgmm | 100 Hgmm | 100 Hgmm | 100 Hgmm | 135 Hgmm |  |  |  |  |  |  |  |  |  |  |  |  |  |  | 
16 | COC(=O)C1=C(C)NC(C)=C(C(=O)OC)C1c1ccccc1NS(C)(=O)=O [Example 41, 2,6-Dimethyl-4-n2-methanesulfonylamidophenyl)-3,5-bis(methoxycarbonyle-1,4-dihydropyridine] | 90 Hgmm | 80 Hgmm | 85 Hgmm |  |  |  |  |  |  |  |  |  |  |  |  |  |  |  |  | 
17 | COC(=O)C1=C(C)NC(C)=C(C(=O)OC)C1c1ccccc1NS(=O)(=O)c1ccc([N+](=O)[O-])cc1 [Example 42, 2,6-Dimethyl-3,5bis(methoxycarbonyl)-4-[2-(4-nitrobenzenesulfonamido)-phenyl]-1,4-dihydropyridine] |  |  |  |  |  | 88.0% |  |  |  |  |  |  |  |  |  |  |  |  |  | 

Reference: patent publication US4829076A, “Novel dihydropyridines having calcium antagonistic and antihypertensive activity” (Alkaloida Vegyeszeti Gyar, priority 1986, dated 1989)
